Results published in patent US20230321253A1, “BIFUNCTIONAL COMPOUNDS AND PHARMACEUTICAL USES THEREOF” (RISEN (SUZHOU) PHARMA TECH CO., LTD., priority 2022, published 2023).

Target: T1, KRAS-G12D protein (Homo sapiens, UniProt P01116, G12D)
T1 construct: host or cells: Aspc-1 cells
Assay: KRAS-G12D protein degradation study in Aspc-1 cells (western blot)
Type: cell-based
Settings: for Rate of protein degradation (KRAS^G12D) / inhibition at 0.1 µM: Aspc-1 cells treated with 0.1 μM compound; for Rate of protein degradation (KRAS^G12D) / inhibition at 0.1 µM / inhibition at 0.05 µM / inhibition at 1 µM: 24 hours; for inhibition at 0.1 µM / inhibition at 0.05 µM / inhibition at 1 µM: ASPC1, 24 h; for inhibition at 0.1 µM / inhibition at 1 µM: read-out: Rate of protein degradation (KRAS^G12D); for inhibition at 0.05 µM: Aspc-1 cells treated with 50 nM compound, read-out: Rate of degradation (KRAS^G12D); for inhibition at 1 µM: Aspc-1 cells treated with 1 μM compound; for DC50: Aspc-1 cells, read-out: DC50 of test compound-induced KRAS^G12D protein degradation
Procedure: Aspc-1 (Cobioer, CBP60546) cells in exponential growth phase were inoculated on a 6-well cell culture plate (Corning, 3516) at density of 1E6/well; and cells in the plate were cultured in 37° C. incubator containing 5% carbon dioxide. The next day, test compounds were dissolved in DMSO (Sigma, RNBF5902) for the preparation of a 10 mM concentration stock solution. The stock solution was diluted with complete medium (RPMI-1640 supplemented with 10% fetal bovine serum, 1% penicillin-streptomycin), yielding working solutions of various concentrations. The plate, after the addition of compounds, was placed in a 5% carbon dioxide incubator, and incubated at 37° C. for 24 hours (final DMSO concentration was 0.1%). The plate was then removed from the incubator, and the cells were washed twice with precooled PBS (Gibco, 14190250), followed by addition of 80 μL RIPA lysis buffer (containing protease inhibitor (Invitrogen™, AM2696)) to each well. The adherent cells were scraped off with a cell scraper, and the cell lysate was transferred to a 1.5 mL centrifuge tube followed with a 30-minute incubation on ice. The lysate was then clarified with centrifugation at 14000 rpm for 10 min at 4° C. The supernatant was transferred into a new 1.5 mL centrifuge tube, and protein concentration was measured with BCA protein detection kit (Thermo Fisher, 23225). KRAS-G12D protein level was assessed by western blot.
A mixture of cell lysate (40 μL) and loading buffer (10 μL 5×SDS (Beyotime, P0015L)) was denatured in a water bath at 95° C. for 10 min. The denatured protein sample, at 30 μL/well, was loaded into the corresponding well of a 4-20% Bis-Tris gel (Kingsley, M00656). Protein samples were initially electrophoresed at 80 V for 30 minutes, followed by 120 V for 40 minutes, until the bromophenol blue strip ran to an appropriate position. After electrophoresis, iBlot2 (Life Technologies, IB21001) was used to transfer the separated samples onto PVDF film. The PVDF membrane was washed with double-distilled water and then blocked in TBST (Thermo Scientific, 28360) buffer containing 5% non-fat milk, for 2 hours. Blocked membrane was rinsed with tris-buffered saline tween-20 (Thermo Scientific, 28360, TBST) three times, 10 minutes each. Membrane was then incubated with 1:1000 diluted KRAS primary antibody (CST, cat #14429S) overnight at 4° C. Membrane was rinsed as described previously followed by 1 hour incubation of secondary antibody at room temperature. After washing the film three times with TBST, ECL color developing solution was applied, and image was captured with Biorad Chemi Doc gel imager. The band gray value was quantified (Image Lab), and protein degradation level was calculated according to the following formula:
Level of RAS protein expression=(RAS-compound/GAPDH)/(RAS-DMSO/GAPDH)
Level of degradation (%)=(1−Rate of RAS protein expression)×100
The symbols “−”, “+”, “++”, and “+++” indicate that the degradation level of KRAS^G12D protein induced by the test compounds was 10% or less, 11 to 30%, 31 to 60%, and greater than 60%, respectively.
Half-maximum degradation concentrations (DC50s) of exemplary test compounds were calculated using GraphPad Prism and their values are shown in Table 6. The symbols “++++”, “+++”, “++” and “+” indicate DC50 equal or less than 10 nM, 11-50 nM, 51-100 nM, and 101-200 nM, respectively.

T1 sequence (P01116 1-188 isoform P01116-2 G12D): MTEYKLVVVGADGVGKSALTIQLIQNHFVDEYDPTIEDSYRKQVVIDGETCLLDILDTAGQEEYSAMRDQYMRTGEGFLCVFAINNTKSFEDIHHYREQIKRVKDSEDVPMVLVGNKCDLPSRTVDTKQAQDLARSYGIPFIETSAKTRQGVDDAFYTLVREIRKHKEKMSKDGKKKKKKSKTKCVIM

C#Cc1c(F)ccc2cc(O)cc(-c3ncc4c(N5CC6CCC(C5)N6)nc(OCC5(CN6CCN(C(=O)CN7CCC(c8ccc9c(C%10CCC(=O)NC%10=O)nn(C)c9c8)CC7)CC6)CC5)nc4c3F)c12 (stereo not drawn) [Compound 119]
Rate of protein degradation (KRAS^G12D): + (11 to 30%)

C#Cc1c(F)ccc2cc(O)cc(-c3ncc4c(N5CC6CCC(C5)N6)nc(OC5CCN(CC(=O)N6CCN(C(=O)C[C@H](NC(=O)[C@@H]7C[C@@H](O)CN7C(=O)[C@@H](NC(=O)C7(F)CC7)C(C)(C)C)c7ccc(-c8scnc8C)cc7)CC6)CC5)nc4c3F)c12 [Compound 71]
inhibition at 0.1 µM: ≤ 10%

C#Cc1c(F)ccc2cc(O)cc(-c3ncc4c(N5CC6CCC(C5)N6)nc(OC5CCN(CCCCCCCCCCOc6cc(-c7ncsc7C)ccc6CNC(=O)[C@@H]6C[C@@H](O)CN6C(=O)[C@@H](NC(=O)C6(F)CC6)C(C)(C)C)CC5)nc4c3F)c12 [Compound 77]
inhibition at 0.1 µM: ≤ 10%

C#Cc1c(F)ccc2cc(O)cc(-c3ncc4c(N5CC6CCC(C5)N6)nc(OCC5(CN6CCN(CC7CCN(c8ccc(NC9CCC(=O)NC9=O)cc8F)CC7)CC6)CC5)nc4c3F)c12 (stereo not drawn) [Compound 109]
inhibition at 0.1 µM: 31 to 60%

C#Cc1c(F)ccc2cc(O)cc(-c3ncc4c(N5CC6CCC(C5)N6)nc(OCC5(CN6CCC7(CC6)CC(Nc6cccc8c(C9CCC(=O)NC9=O)n[nH]c68)C7)CC5)nc4c3F)c12 (stereo not drawn) [Compound 163]
inhibition at 0.05 µM: 31 to 60%

C#Cc1c(F)ccc2cc(O)cc(-c3ncc4c(N5CC6CCC(C5)N6)nc(OCCCN5CCN(CCCCCC(=O)N[C@H](C(=O)N6C[C@H](O)C[C@H]6C(=O)NCc6ccc(-c7scnc7C)cc6)C(C)(C)C)CC5)nc4c3F)c12 [Compound 28]
inhibition at 1 µM: 11 to 30%

C#Cc1c(F)ccc2cc(O)cc(-c3ncc4c(N5CC6CCC(C5)N6)nc(OC5CCN(CCCCCCCCOc6cc(-c7ncsc7C)ccc6CNC(=O)[C@@H]6C[C@@H](O)CN6C(=O)[C@@H](NC(=O)C6(F)CC6)C(C)(C)C)CC5)nc4c3F)c12 [Compound 76]
inhibition at 0.1 µM: ≤ 10%

C#Cc1c(F)ccc2cc(O)cc(-c3ncc4c(N5CC6CCC(C5)N6)nc(OCC5(CN6CCC(CN7CCN(c8ccc(C(=O)NC9CCC(=O)NC9=O)nc8)CC7)CC6)CC5)nc4c3F)c12 (stereo not drawn) [Compound 136]
inhibition at 0.05 µM: ≤ 10%

C#Cc1c(F)ccc2cc(O)cc(-c3ncc4c(N5CC6CCC(C5)N6)nc(OC5CCN(CC(=O)N6CCC7(CC6)CC(N6CCC(c8ccc9c(C%10CCC(=O)NC%10=O)nn(C)c9c8)CC6)C7)C5)nc4c3F)c12 (stereo not drawn) [Compound 101]
Rate of protein degradation (KRAS^G12D): + (11 to 30%)

C#Cc1c(F)ccc2cc(O)cc(-c3ncc4c(N5CC6CCC(C5)N6)nc(OCC5(CN6CCN(C7CC(C(=O)N8CCC(c9ccc%10c(C%11CCC(=O)NC%11=O)nn(C)c%10c9)CC8)C7)CC6)CC5)nc4c3F)c12 (stereo not drawn) [Compound 118]
inhibition at 0.1 µM: > 60% | DC50: < 10 nM

C#Cc1c(F)ccc2cc(O)cc(-c3ncc4c(N5CC6CCC(C5)N6)nc(OCC5(CN6CCN(c7ccc8c(c7)C(=O)N(C7CCC(=O)NC7=O)C8=O)CC6)CC5)nc4c3F)c12 (stereo not drawn) [Compound 117]
inhibition at 0.1 µM: > 60%

C#Cc1c(F)ccc2cc(O)cc(-c3ncc4c(N5CC6CCC(C5)N6)nc(OCC5(CN6CCC7(CC6)CC(N6CCN(c8cccc9c8C(=O)N(C8CCC(=O)NC8=O)C9=O)CC6)C7)CC5)nc4c3F)c12 (stereo not drawn) [Compound 153]
inhibition at 0.05 µM: 31 to 60%

C#Cc1c(F)ccc2cc(O)cc(-c3ncc4c(N5CC6CCC(C5)N6)nc(OCC5(CN6CCN(C(=O)CN7CCN(c8ccc(NC9CCC(=O)NC9=O)cc8F)CC7)CC6)CC5)nc4c3F)c12 (stereo not drawn) [Compound 108]
inhibition at 0.1 µM: ≤ 10%

C#Cc1c(F)ccc2cc(O)cc(-c3ncc4c(N5CC6CCC(C5)N6)nc(OCC5(CN6CC7CN(C(=O)CN8CCC(c9ccc%10c(C%11CCC(=O)NC%11=O)nn(C)c%10c9)CC8)CC7C6)CC5)nc4c3F)c12 (stereo not drawn) [Compound 138]
inhibition at 0.05 µM: > 60%

C#Cc1c(F)ccc2cc(O)cc(-c3ncc4c(N5CC6CCC(C5)N6)nc(OCC5(CN6CCN(CCCCCCCCCCC(=O)N7CCN(C(=O)C[C@H](NC(=O)[C@@H]8C[C@@H](O)CN8C(=O)[C@@H](NC(=O)C8(F)CC8)C(C)(C)C)c8ccc(-c9scnc9C)cc8)CC7)CC6)CC5)nc4c3F)c12 [Compound 106]
inhibition at 0.1 µM: 11 to 30%

Cn1nc(C2CCC(=O)NC2=O)c2ccc(C3CCN(CC(=O)N4CCN(CC5(COc6nc(N7CC8CCC(C7)N8)c7cnc(-c8cc(N)cc(Cl)c8C(F)(F)F)c(F)c7n6)CC5)CC4)CC3)cc21 (stereo not drawn) [Compound 128]
inhibition at 0.05 µM: > 60%

C#Cc1c(F)ccc2cc(O)cc(-c3ncc4c(N5CC6CCC(C5)N6)nc(OCC56CCCN5[C@@H](COC(=O)NCCCCCCCCCCC(=O)N[C@H](C(=O)N5C[C@H](O)C[C@H]5C(=O)N[C@@H](C)c5ccc(-c7scnc7C)cc5)C(C)(C)C)CC6)nc4c3F)c12 (stereo partly drawn) [Compound 93]
inhibition at 0.1 µM: > 60% | DC50: 51 to 100 nM

C#Cc1c(F)ccc2cc(O)cc(-c3ncc4c(N5CC6CCC(C5)N6)nc(OCC5(CN6CCC(N7CCC(c8ccc9c(C%10CCC(=O)NC%10=O)nn(C)c9c8)CC7)CC6)CC5)nc4c3F)c12 (stereo not drawn) [Compound 113]
inhibition at 0.1 µM: > 60% | DC50: < 10 nM

C#Cc1c(F)ccc2cc(O)cc(-c3ncc4c(N5CC6CCC(C5)N6)nc(OCC5(CN6CCC7(CC6)CCN(c6ccc(NC8CCC(=O)NC8=O)cc6F)CC7)CC5)nc4c3F)c12 (stereo not drawn) [Compound 110]
inhibition at 0.1 µM: 31 to 60% | DC50: < 10 nM

C#Cc1c(F)ccc2cc(O)cc(-c3ncc4c(N5CC6CCC(C5)N6)nc(OCC56CCCN5[C@@H](COC(=O)N5CCC(c7ccc8c(C9CCC(=O)NC9=O)nn(C)c8c7)CC5)CC6)nc4c3F)c12 (stereo partly drawn) [Compound 97]
inhibition at 0.1 µM: 31 to 60%

C#Cc1c(F)ccc2cc(O)cc(-c3ncc4c(N5CC6CCC(C5)N6)nc(O[C@H]5CCN(CCCCCCCCCCC(=O)N[C@H](C(=O)N6C[C@H](O)C[C@H]6C(=O)N[C@@H](C)c6ccc(-c7scnc7C)cc6)C(C)(C)C)C5)nc4c3F)c12 [Compound 85]
inhibition at 0.1 µM: > 60%

C#Cc1c(F)ccc2cc(O)cc(-c3ncc4c(N5CC6CCC(C5)N6)nc(OCC5(CN6CCC(CNc7cccc8c(C9CCC(=O)NC9=O)nn(C)c78)CC6)CC5)nc4c3F)c12 (stereo not drawn) [Compound 165]
inhibition at 0.05 µM: 31 to 60%

C#Cc1c(F)ccc2cc(O)cc(-c3ncc4c(N5CC6CCC(C5)N6)nc(OCC5(CN6CCC7(CC6)CC(N6CCN(c8cc9c(cc8F)C(=O)N(C8CCC(=O)NC8=O)C9=O)CC6)C7)CC5)nc4c3F)c12 (stereo not drawn) [Compound 152]
inhibition at 0.05 µM: 31 to 60%

CCc1c(F)ccc2cc(O)cc(-c3ncc4c(N5CC6CCC(C5)N6)nc(OCC56CCCN5[C@@H](COC(=O)NCCCCCCCC(=O)N[C@H](C(=O)N5C[C@H](O)C[C@H]5C(=O)N[C@@H](C)c5ccc(-c7scnc7C)cc5)C(C)(C)C)CC6)nc4c3F)c12 (stereo partly drawn) [Compound 68]
inhibition at 0.1 µM: 31 to 60% | inhibition at 1 µM: > 60%

C#Cc1c(F)ccc2cc(O)cc(-c3ncc4c(N5CC6CCC(C5)N6)nc(OC[C@@H]5C[C@@H](NC(=O)C6(C(=O)N7CCC(c8ccc9c(C%10CCC(=O)NC%10=O)nn(C)c9c8)CC7)CC6)CN5C)nc4c3F)c12 (stereo in doubt) [Compound 96]
inhibition at 0.1 µM: 11 to 30%

C#Cc1c(F)ccc2cc(O)cc(-c3ncc4c(N5CC6CCC(C5)N6)nc(OC5CCN(CCCCCNC(=O)CO[C@@H]6C[C@H](C)CC[C@H]6C(C)C)C5)nc4c3F)c12 (stereo partly drawn) [Compound 143]
inhibition at 0.05 µM: 11 to 30%

C#Cc1c(F)ccc2cc(O)cc(-c3ncc4c(N5CC6CCC(C5)N6)nc(OCC5(CN6CC(CN7CCC(c8ccc9c(C%10CCC(=O)NC%10=O)nn(C)c9c8)CC7)C6)CC5)nc4c3F)c12 (stereo not drawn) [Compound 144]
inhibition at 0.05 µM: 31 to 60%

C#Cc1c(F)ccc2cc(O)cc(-c3ncc4c(N5CC6CCC(C5)N6)nc(OCC5(CN6CC(CN7CCN(c8ccc(C(=O)NC9CCC(=O)NC9=O)nc8)CC7)C6)CC5)nc4c3F)c12 (stereo not drawn) [Compound 134]
inhibition at 0.05 µM: 11 to 30%
